Structures can show the parent of a compound that is named as a salt. Where two headings read alike, the source gives them in different places.
Key:
Assay type in all cases: in vivo
[1] = system: supra maximal electro shock (SES); assay: protection from supra maximal electro shock (SES), anticonvulsant
Experimental: Compounds of the present invention are further useful as anticonvulsant agents for mammals, as determined by the method of Woodbury, L. A. and Davenport, V. D., in Arch, Int. Pharmacodynam, Vol. 92, (1952) at pages 97-107. For example, the intraperitoneal dose of 17.6 mg/kg of body weight of 1-methyl-4-[-(4,fluorophenyl)-2-tolyl]-1,2,3,6-tetrahydropyridine hydrobromide produces an 83% protection from the effect of supra maximal electro shock (SES). Intraperitoneal doses of other representative compounds of the invention and their ability to protect from the effect of SES is shown below in Table IV.

[2] = system: tetrabenazine-induced ptosis; assay: inhibition of tetrabenazine-induced ptosis in mice (antidepressant assay); details: Mus musculus, ip, read-out: ED50 (50% inhibition from the ptosis of tetrabenazine-induced depression)
Excerpt: Thus, for instance, the intraperitoneal dosages at which the following compounds (ED50) effect a 50% inhibition from the ptosis of tetrabenazine-induced depression in mice are:
It is to be noted and stressed at this point that the substitution of a benzyl in the 2- or ortho position of the phenyl ring, in the compounds of the invention, is critical to biological especially antidepressant, activity. Where the benzyl is substituted in the 3- or meta position or the 4- or para position, the corresponding compound is relatively ineffective as compared to the 2-substituted compounds of the invention. In this regard, reference is made to the following Table II which illustrates such criticality in the form of intraperitoneal dosages at which a series (A. B. and C.) of 2-, 3- and 4-substituted compounds effect a 50% inhibition from the ptosis of tetrabenazine-induced depression in mice: […]

toxicity of amphetamine = assay: Amphetamine Aggregation Toxicity Reversal Assay (tranquilizer); details: 20 mg/kg oral; against 15 mg/kg intraperitoneal amphetamine sulfate; aggregated mice, survival up to 3 hours
Excerpt: Compounds of the invention are still further useful as tranquilizers due to their ability to reverse toxicity of amphetamine as measured in the Amphetamine Aggregation Toxicity Reversal Assay [Chance, M. R. A., J. Pharmacol. Exper. Therap. 87, pp. 214-219 (1946) and Proctor, C. D., Putts, J. T., Lundy, R. O., and Greenfield, E. J., Arch. Int. Pharmacodynam. 163, (1), pp. 79-86 (1966)]. In our assay "aggregated mice" mean 5 mice/group placed in such a manner as to yield 20 cm^2 of floor space per mouse. Animals are aggregated immediately after injection with amphetamine sulfate and then checked for survival up to 3 hours. For example, under these conditions an oral dosage of 20 mg/kg of body weight of 1-[3-(4-fluorobenzoyl)propyl]-4-(α-phenyl-2-tolyl)piperidine effects a 60% protection against the intraperitoneal dose of 15 mg/kg of amphetamine sulfate.

[3] = system: 2-phenyl-1,4-quinone induced writhing; assay: 2-phenyl-1,4-quinone induced writhing assay in mice (analgesia); details: for inhibition of writhing: 60 mg/kg p.o., comparison
Experimental: Compounds of the invention are also useful as analgesic agents due to their ability to alleviate pain in mammals. […] Exptl. Biol. Med., 95, 729 (1957)]. Thus, for example, a 50% inhibition in writhing is effected by the oral administration of 28.4 mg/kg of body weight of 4-acetoxy-1-methyl-4-(α-phenyl)-2-tolyl)piperidine hydrochloride. Other representative compounds of the invention and their respective ability to inhibit said writhing is shown below in Table III.

[4] = system: tetrabenazine-induced ptosis; assay: inhibition of tetrabenazine-induced ptosis in mice (antidepressant assay); details: 25 mg/kg intraperitoneal
[5] = intraperitoneal, mice, Table II (2-, 3- and 4-substituted series A, B, C)

`Br.CN1CC=C(c2ccccc2Cc2ccc(F)cc2)CC1` [4-[α-(4-fluorophenyl)-2-tolyl]-1-methyl-1,2,3,6-tetrahydropyridine hydrobromide] was tested, and the “protection from the effect of supra maximal electro shock (SES)” value ([1]; 17.6 mg/kg intraperitoneal) was 83% and the ED50 [2] was 8 mg/kg.

For `O=C(CCCN1CCC(c2ccccc2Cc2ccccc2)CC1)c1ccc(F)cc1` [1-[3-(4-fluorobenzoyl)propyl]-4-(α-phenyl-2-tolyl)piperidine], the “protection against amphetamine sulfate toxicity” value (toxicity of amphetamine) was 60%.

With `Br.c1ccc(CCN2CCC(c3ccccc3Cc3ccccc3)CC2)cc1` [1-phenethyl-4-(α-phenyl-2-tolyl)piperidine hydrobromide] the “% SES Protection” value ([1]; 37.5 mg/kg intraperitoneal) was 50%.

Work on `ON1CCC(c2ccccc2Cc2ccccc2)CC1` [1-hydroxy-4-(α-phenyl-2-tolyl)piperidine] yielded an ED50 ([2]; intraperitoneal, mice, Table I) of 3 mg/kg.

Work on `CN1CC=C(c2ccc(Cc3ccccc3)cc2)CC1` [1-methyl-4-(α-phenyl-4-tolyl)-1,2,3,6-tetrahydropyridine, reference compound] yielded an ED50 [2] greater than 50 mg/kg.

With `Cl.c1ccc(Cc2cccc(C3CCNCC3)c2)cc1` [4-(α-phenyl-3-tolyl)piperidine hydrochloride, reference compound] the ED50 [2, 5] was greater than 20 mg/kg.

`CN1CCC(OC(=O)c2ccccc2)(c2ccccc2Cc2ccccc2)CC1.Cl` [4-benzoyloxy-1-methyl-4-(α-phenyl-2-tolyl)piperidine hydrochloride] was tested, and the “% Inhibition in Writhing” value ([3]; 12.8 mg/kg sc, mice) was 50%.

With `Br.COc1ccc(Cc2ccccc2C2=CCN(C)CC2)cc1` [1-methyl-4-[α-(4-methoxyphenyl)-2-tolyl]-1,2,3,6-tetrahydropyridine hydrobromide] the “% SES Protection” value ([1]; 25.6 mg/kg intraperitoneal) was 50%.

`CN1CCC(c2ccccc2Cc2ccccc2)CC1.Cl` [1-methyl-4-(α-phenyl-2-tolyl)piperidine hydrochloride] was tested, and the “% SES Protection” value ([1]; 50 mg/kg intraperitoneal) was 83%, the “% Inhibition in Writhing” value ([3]; 61.7 mg/kg po, mice) was 50% and the ED50 [2, 5] was 2.5 mg/kg.

For `CCC(=O)OC1(c2ccccc2Cc2ccccc2)CCN(C)CC1.Cl` [1-methyl-4-(α-phenyl-2-tolyl)-4-propionyloxypiperidine hydrochloride], the “% SES Protection” value ([1]; 50 mg/kg intraperitoneal) was 50% and the “% Inhibition in Writhing” value ([3]; 8.9 mg/kg sc, mice) was 50%.

`CN1CCC(c2ccc(Cc3ccccc3)cc2)CC1.O=C(O)C(=O)O` [1-methyl-4-(α-phenyl-4-tolyl)piperidine oxalate, reference compound] gave an ED50 [2, 5] greater than 20 mg/kg.

`Cl.c1ccc(Cc2ccc(C3CCNCC3)cc2)cc1` [4-(α-phenyl-4-tolyl)piperidine hydrochloride, reference compound] was tested, and the ED50 [2, 5] was greater than 20 mg/kg.

In the case of `CN1CC=C(c2ccccc2Cc2ccccc2)CC1` [1-methyl-4-(α-phenyl-2-tolyl)-1,2,3,6-tetrahydropyridine], the ED50 [2] is reported as 8.8 mg/kg.

For `Cl.c1ccc(Cc2ccccc2C2CCNCC2)cc1` [4-(α-phenyl-2-tolyl)piperidine hydrochloride], the ED50 [2, 5] was 1.7 mg/kg.

Molecule `Cl.OC1(c2ccccc2Cc2ccccc2)CCNCC1` [4-(α-phenyl-2-tolyl)-4-piperidinol hydrochloride] has an ED50 ([2]; intraperitoneal, mice, Table I) of 5.4 mg/kg.

Molecule `CCC(=O)O[C@](Cc1ccccc1)(c1ccccc1)[C@H](C)CN(C)C` [propoxyphene hydrochloride, reference compound] has an inhibition of writhing [3] of 50%.

With `CN1CCC(c2cccc(Cc3ccccc3)c2)CC1.O=C(O)C(=O)O` [1-methyl-4-(α-phenyl-3-tolyl)piperidine oxalate, reference compound] the ED50 [2, 5] was greater than 20 mg/kg.

`CC(=O)OC1(c2ccccc2Cc2ccccc2)CCN(C)CC1.Cl` [4-acetoxy-1-methyl-4-(α-phenyl-2-tolyl)piperidine hydrochloride] was tested, and the inhibition in writhing ([3]; 28.4 mg/kg oral, mice) was 50% and the “inhibition from the ptosis of tetrabenazine-induced depression” value [4] was 40%.

`CC(=O)Oc1ccccc1C(=O)O` [aspirin, reference compound] showed an inhibition of writhing [3] of 34%.

`CN1CC=C(c2cccc(Cc3ccccc3)c2)CC1` [1-methyl-4-(α-phenyl-3-tolyl)-1,2,3,6-tetrahydropyridine, reference compound] showed an ED50 [2] greater than 50 mg/kg.

For `CN1CCC(O)(c2ccccc2Cc2ccccc2)CC1` [1-methyl-4-(α-phenyl-2-tolyl)-4-piperidinol], the “% SES Protection” value ([1]; 36 mg/kg intraperitoneal) was 50%, the “% Inhibition in Writhing” value ([3]; 50.0 mg/kg po, mice) was 41% and the ED50 [2] was 8 mg/kg.

For `C1=C(c2ccccc2Cc2ccccc2)CCNC1` [4-(α-phenyl-2-tolyl)-1,2,3,6-tetrahydropyridine], the “% Inhibition in Writhing” value ([3]; 7.8 mg/kg sc, mice) was 50% and the ED50 [2] was 2.1 mg/kg.

For `Cl.OC1(c2ccccc2Cc2ccccc2)CCN(Cc2ccccc2)C1` (stereo not drawn) [1-benzyl-3-(α-phenyl-2-tolyl)-3-pyrrolidinol hydrochloride], the “% SES Protection” value ([1]; 50 mg/kg intraperitoneal) was 83%.

In the case of `CN1CCC(O)(c2ccccc2Cc2ccc(F)cc2)CC1` [1-methyl-4-[α-(4-fluorophenyl)-2-tolyl]-4-piperidinol], the “% SES Protection” value ([1]; 23.3 mg/kg intraperitoneal) is reported as 50% and the ED50 [2] is reported as 8.2 mg/kg.
